This assay concerns the target T1, Full-length, GST-tagged, human CaMKIIδ (Homo sapiens, UniProt Q13557).
T1 construct: Full-Length, Glutathione-S-Transferase(GST)-Tagged, Human CaMKIIδ was purchased from Carna Biosciences; purchased Carna Biosciences 02-111
Nature of the assay: CaMKIIδ binding assay (TR-FRET with BODIPY-labeled probe ligand). Put shortly:
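Compounds were tested as 4-fold, eight-point series for 1 hr at room temperature, and IC50 was obtained by logistic fitting against a 3 μM parent-compound control. Signal came from displacement of a 300 nM BODIPY ligand from 0.5 nM GST-CaMKIIδ, detected via Tb-anti-GST in calmodulin/Ca2+ (pH 7.6).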
In general terms: Time-resolved FRET reads energy transfer from a long-lived donor to a nearby acceptor.

The mark [1] stands for this setting: CaMKIIδ binding assay, results of Table 2.
Setting [2] is: Table 2, activity class for CaMKIIδ.
The mark [3] stands for this setting: CaMKIIδ binding assay, activity class per Table 2.
Where [4] appears, read: Table 2, CaMKIIδ binding assay, activity given as class A/B/C.

T1 sequence (Q13557 1-478 isoform Q13557-12): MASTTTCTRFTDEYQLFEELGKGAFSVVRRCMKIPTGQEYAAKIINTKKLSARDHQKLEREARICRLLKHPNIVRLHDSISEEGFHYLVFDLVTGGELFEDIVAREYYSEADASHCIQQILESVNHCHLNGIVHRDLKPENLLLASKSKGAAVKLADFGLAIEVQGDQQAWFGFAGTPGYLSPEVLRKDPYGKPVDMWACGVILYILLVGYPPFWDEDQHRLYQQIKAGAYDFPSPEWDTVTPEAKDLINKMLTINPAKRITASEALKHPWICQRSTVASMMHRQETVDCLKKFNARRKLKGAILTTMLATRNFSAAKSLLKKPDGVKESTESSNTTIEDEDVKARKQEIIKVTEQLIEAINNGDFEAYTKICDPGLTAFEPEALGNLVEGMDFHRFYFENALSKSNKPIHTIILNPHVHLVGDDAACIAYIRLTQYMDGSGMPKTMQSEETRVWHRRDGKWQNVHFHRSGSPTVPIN

As for `COc1cc2c(cc1Nc1ncc(-c3ccc(Cl)c(O[C@@H](C)Cn4cnnn4)c3)cn1)CCN(CC1COC1)C2` [Example 475, (S)-N-(5-(3-((1-(1H-tetrazol-1-yl)propan-2-yl)oxy)-4-chlorophenyl)pyrimidin-2-yl)-7-methoxy-2-(oxetan-3-ylmethyl)-1,2,3,4-tetrahydroisoquinolin-6-amine], the IC50 (as a rule, the concentration at which inhibition is half-maximal) under setting [1] was below 10 nM.

On to `COc1cc(N2CCNC[C@@H]2C)ccc1Nc1ncc(-c2ccc(Cl)c(O[C@@H](C)Cn3cnnn3)c2)cn1` [Example 649, 5-(3-(((S)-1-(1H-tetrazol-1-yl)propan-2-yl)oxy)-4-chlorophenyl)-N-(2-methoxy-4-((S)-2-methylpiperazin-1-yl)phenyl)pyrimidin-2-amine], for which the IC50 under setting [2] is below 10 nM. `CC(C)c1nn(C2CC3(CNC3)C2)cc1Nc1ncc(-c2ccc(Cl)c(O[C@@H](C)Cn3cnnn3)c2)cn1` [Example 934, (S)-5-(3-((1-(1H-tetrazol-1-yl)propan-2-yl)oxy)-4-chlorophenyl)-N-(3-isopropyl-1-(2-azaspiro[3.3]heptan-6-yl)-1H-pyrazol-4-yl)pyrimidin-2-amine] had an IC50 under setting [3] below 10 nM. `C[C@@H](Cn1cnnn1)Oc1cc(-c2cnc(Nc3cn(C4CCN(C5CCC5)CC4)nc3OCCF)nc2)ccc1Cl` [Example 826, (S)-5-(3-((1-(1H-tetrazol-1-yl)propan-2-yl)oxy)-4-chlorophenyl)-N-(1-(1-cyclobutylpiperidin-4-yl)-3-(2-fluoroethoxy)-1H-pyrazol-4-yl)pyrimidin-2-amine] had a half-inhibitory concentration (IC50) under setting [4] below 10 nM. The molecule `CC(Cn1cnnn1)Oc1cc(-c2cnc(Nc3cn(C4CCC(O)(CN5CCOCC5)CC4)nc3C(F)(F)F)nc2)ccc1Cl` [Example 918, trans-4-(4-((5-(3-(((S)-1-(1H-tetrazol-1-yl)propan-2-yl)oxy)-4-chlorophenyl)pyrimidin-2-yl)amino)-3-(trifluoromethyl)-1H-pyrazol-1-yl)-1-(morpholinomethyl)cyclohexan-1-ol] came in with an IC50 under setting [3] below 10 nM. With `C[C@@H](Cn1cnnn1)Oc1cc(-c2cnc(Nc3cn(Cc4ccc(=O)[nH]c4)nc3OCC(F)(F)F)nc2)ccc1Cl` [Example 927, (S)-5-((4-((5-(3-((1-(1H-tetrazol-1-yl)propan-2-yl)oxy)-4-chlorophenyl)pyrimidin-2-yl)amino)-3-(2,2,2-trifluoroethoxy)-1H-pyrazol-1-yl)methyl)pyridin-2(1H)-one], the IC50 under setting [3] is below 10 nM. Under setting [1], `COc1cc2c(cc1Nc1ncc(-c3ccc(C#N)c(O[C@@H](C)Cn4cnnn4)c3)cn1)C(=O)N(CC1COC1)C2` [Example 446, (S)-2-((1-(1H-tetrazol-1-yl)propan-2-yl)oxy)-4-(2-((6-methoxy-2-(oxetan-3-ylmethyl)-3-oxoisoindolin-5-yl)amino)pyrimidin-5-yl)benzonitrile] yielded an IC50 of 10 to 100 nM.

With `C[C@@H](Cn1cnnn1)Oc1cc(-c2cnc(Nc3cn([C@H]4C[C@H](NC5CCOCC5)C4)nc3OCC(F)(F)F)nc2)ccc1Cl` [Example 942, 5-(3-(((S)-1-(1H-tetrazol-1-yl)propan-2-yl)oxy)-4-chlorophenyl)-N-(1-(trans-3-((tetrahydro-2H-pyran-4-yl)amino)cyclobutyl)-3-(2,2,2-trifluoroethoxy)-1H-pyrazol-4-yl)pyrimidin-2-amine], under setting [3], the IC50 is below 10 nM. Take `COc1cc(N2CCN(C3CCOC3)CC2)ncc1Nc1ncc(-c2ccc(Cl)c(O[C@@H](C)Cn3cnnn3)c2)cn1` (stereo partly drawn) [Example 651, 5-(3-(((S)-1-(1H-tetrazol-1-yl)propan-2-yl)oxy)-4-chlorophenyl)-N-(4-methoxy-6-(4-(tetrahydrofuran-3-yl)piperazin-1-yl)pyridin-3-yl)pyrimidin-2-amine]: the IC50 under setting [2] is 10 to 100 nM. Under setting [3], `C[C@@H](Cn1cnnn1)Oc1cc(-c2cnc(Nc3cn(CC4(O)CCN(C(N)=O)CC4)nc3C(F)(F)F)nc2)ccc1Cl` [Example 888, (S)-4-((4-((5-(3-((1-(1H-tetrazol-1-yl)propan-2-yl)oxy)-4-chlorophenyl)pyrimidin-2-yl)amino)-3-(trifluoromethyl)-1H-pyrazol-1-yl)methyl)-4-hydroxypiperidine-1-carboxamide] returned an IC50 below 10 nM. Turning to `COc1cc2c(cc1Nc1ncc(-c3ccc(Cl)c(O[C@@H](C)Cn4cnnn4)c3)cn1)CCN(C1CCOCC1)C2` [Example 474, (S)-N-(5-(3-((1-(1H-tetrazol-1-yl)propan-2-yl)oxy)-4-chlorophenyl)pyrimidin-2-yl)-7-methoxy-2-(tetrahydro-2H-pyran-4-yl)-1,2,3,4-tetrahydroisoquinolin-6-amine], the half-maximal inhibitory concentration (IC50) under setting [1] was below 10 nM. Consider `C[C@@H](Cn1cnnn1)Oc1cc(-c2cnc(Nc3cn(CC4(O)CCC(=O)CC4)nc3OCC(F)(F)F)nc2)ccc1Cl` [Example 903, (S)-4-((4-((5-(3-((1-(1H-tetrazol-1-yl)propan-2-yl)oxy)-4-chlorophenyl)pyrimidin-2-yl)amino)-3-(2,2,2-trifluoroethoxy)-1H-pyrazol-1-yl)methyl)-4-hydroxycyclohexan-1-one], for which, under setting [3], the IC50 was below 10 nM.

Molecule `COc1ccc(C(=O)N2CCN(C3COC3)CC2)cc1Nc1ncc(-c2ccc(Cl)c(O[C@@H](C)Cn3cnnn3)c2)cn1` [Example 589, (S)-(3-((5-(3-((1-(1H-tetrazol-1-yl)propan-2-yl)oxy)-4-chlorophenyl)pyrimidin-2-yl)amino)-4-methoxyphenyl) (4-(oxetan-3-yl)piperazin-1-yl)methanone] yielded a half-maximal inhibitory concentration (IC50) under setting [2] of 10 to 100 nM. In turn, `C[C@@H](Cn1cnnn1)Oc1cc(-c2cnc(Nc3cn(C4(C(N)=O)CCC4)nc3OCC(F)(F)F)nc2)ccc1Cl` [Example 917, (S)-1-(4-((5-(3-((1-(1H-tetrazol-1-yl)propan-2-yl)oxy)-4-chlorophenyl)pyrimidin-2-yl)amino)-3-(2,2,2-trifluoroethoxy)-1H-pyrazol-1-yl)cyclobutane-1-carboxamide] came in with an IC50 under setting [3] below 10 nM. Turning to `C[C@@H](Cn1cnnn1)Oc1cc(-c2cnc(Nc3cn(C4CCC(CC(=O)O)CC4)nc3C(F)(F)F)nc2)ccc1Cl` (stereo partly drawn) [Example 851, (S)-2-(4-(4-((5-(3-((1-(1H-tetrazol-1-yl)propan-2-yl)oxy)-4-chlorophenyl)pyrimidin-2-yl)amino)-3-(trifluoromethyl)-1H-pyrazol-1-yl)cyclohexyl)acetic acid], under setting [4], the IC50 was at least 100 nM.

Take `C[C@@H](Cn1cnnn1)Oc1cc(-c2cnc(Nc3cn(C4CCCCNC4=O)nc3OCC(F)(F)F)nc2)ccc1Cl` (stereo partly drawn) [Example 777, 3-(4-((5-(3-(((S)-1-(1H-tetrazol-1-yl)propan-2-yl)oxy)-4-chlorophenyl)pyrimidin-2-yl)amino)-3-(2,2,2-trifluoroethoxy)-1H-pyrazol-1-yl)azepan-2-one]: the IC50 under setting [4] is below 10 nM. `C[C@@H](Cn1cnnn1)Oc1cc(-c2cnc(Nc3cn(C4CC5(C4)CN(C4CCOC4)C5)nc3C(F)(F)F)nc2)ccc1Cl` (stereo partly drawn) [Example 930, 5-(3-(((S)-1-(1H-tetrazol-1-yl)propan-2-yl)oxy)-4-chlorophenyl)-N-(1-(2-(tetrahydrofuran-3-yl)-2-azaspiro[3.3]heptan-6-yl)-3-(trifluoromethyl)-1H-pyrazol-4-yl)pyrimidin-2-amine] yielded an IC50 under setting [3] below 10 nM. `C[C@@H](Cn1cnnn1)Oc1cc(-c2cnc(Nc3c[nH]nc3C(F)(F)F)nc2)ccc1Cl` [Example 628, (S)-5-(3-((1-(1H-tetrazol-1-yl)propan-2-yl)oxy)-4-chlorophenyl)-N-(3-(trifluoromethyl)-1H-pyrazol-4-yl)pyrimidin-2-amine] displayed an IC50 under setting [2] of 10 to 100 nM.

Turning to `C[C@@H](Cn1cnnn1)Oc1cc(-c2cnc(Nc3cc(C4CCN(C5COC5)CC4)c(F)cc3F)nc2)ccc1Cl` [Example 684, (S)-5-(3-((1-(1H-tetrazol-1-yl)propan-2-yl)oxy)-4-chlorophenyl)-N-(2,4-difluoro-5-(1-(oxetan-3-yl)piperidin-4-yl)phenyl)pyrimidin-2-amine], the IC50 under setting [2] was in the range of 10 to 100 nM. Molecule `C[C@@H](Cn1cnnn1)Oc1cc(-c2cnc(Nc3cn(CC(O)C(F)(F)F)nc3C(F)(F)F)nc2)ccc1Cl` (stereo partly drawn) [Example 728, 3-(4-((5-(3-(((S)-1-(1H-tetrazol-1-yl)propan-2-yl)oxy)-4-chlorophenyl)pyrimidin-2-yl)amino)-3-(trifluoromethyl)-1H-pyrazol-1-yl)-1,1,1-trifluoropropan-2-ol] yielded an IC50 under setting [2] of 10 to 100 nM. In the case of `C[C@@H](Cn1cnnn1)Oc1cc(-c2cnc(Nc3ccc4c(c3)N(C(=O)CCCN(C)C)CC4)nc2)ccc1Cl` [Example 436, (S)-1-(6-((5-(3-((1-(1H-tetrazol-1-yl)propan-2-yl)oxy)-4-chlorophenyl)pyrimidin-2-yl)amino)indolin-1-yl)-4-(dimethylamino)butan-1-one], the IC50 under setting [1] was below 10 nM. Regarding `C[C@@H](Cn1cnnn1)Oc1cc(-c2cnc(Nc3cn(C4CCN(Cc5cccn5C)CC4)nc3C(F)(F)F)nc2)ccc1Cl` [Example 566, (S)-5-(3-((1-(1H-tetrazol-1-yl)propan-2-yl)oxy)-4-chlorophenyl)-N-(1-(1-((1-methyl-1H-pyrrol-2-yl)methyl)piperidin-4-yl)-3-(trifluoromethyl)-1H-pyrazol-4-yl)pyrimidin-2-amine], under setting [1], the IC50 is below 10 nM.

Under setting [1], `C[C@@H](Cn1cnnn1)Oc1cc(-c2cnc(Nc3cc(N4CCN(C5CCOCC5)CC4)ncc3OC(F)(F)F)nc2)ccc1C#N` [Example 542, (S)-2-((1-(1H-tetrazol-1-yl)propan-2-yl)oxy)-4-(2-((2-(4-(tetrahydro-2H-pyran-4-yl)piperazin-1-yl)-5-(trifluoromethoxy)pyridin-4-yl)amino)pyrimidin-5-yl)benzonitrile] showed an IC50 below 10 nM. The same measure, in the same setting: with `COc1ccc(N2CCCC(N3CCOCC3)C2)cc1Nc1ncc(-c2ccc(Cl)c(O[C@@H](C)Cn3cnnn3)c2)cn1` (stereo partly drawn) [Example 455, 5-(3-(((S)-1-(1H-tetrazol-1-yl)propan-2-yl)oxy)-4-chlorophenyl)-N-(2-methoxy-5-(3-morpholinopiperidin-1-yl)phenyl)pyrimidin-2-amine] the figure was 10 to 100 nM.

Source of the values: US10543212B2, “Substituted amines for treating cardiac diseases” (Cardurion Pharmaceuticals, LLC, priority 2017, dated 2020).
